Laboratory results reported in patent publication US10351500B2, “Method of using of dihydro-resveratrol or its stilbenoid derivatives and/or chemical variants as antimicrobial agents” (Hong Kong Baptist University, priority 2015, dated 2019).

How the values were obtained:
[1] = test system: Trichophyton mentagrophytes; experiment: anti-fungal growth inhibition, T. mentagrophytes; assay type: cell-based; conditions: Trichophyton mentagrophytes, 168 h, T. mentagraphytes, one week, 30° C., OD 510 nm
Method: (§1) Evaluation of anti-fungal activity. In a single well of the 96-well microplate, 10 μL of the testing compound is added into 190 μL of growth medium (Difco™ YM) containing an overnight culture of Trichophyton rubrum or Trichophyton mentagrophytes at a density of approximately 5×10^5 CFU. The testing compounds include dihydro-resveratrol and DR1 to DR11. Wells incubated with 10 μL 0.5% DMSO only (i.e. no testing compound) are served as the experimental control of fungal growth whilst those incubated with growth medium only (i.e. no fungi) are served as the negative control. […] The percentage of growth inhibition of T. mentagrophytes by the different concentrations of testing compounds is shown in Table 10 whilst the percentage of growth inhibition of T. rubrum is shown in Table 11. The images of T. mentagrophytes culture are captured post treatment of dihydro-resveratrol (100 μM) and DR8 (100 μM) when compared to the growth of experimental control and negative control (FIG. 30).

Trichophyton rubrum = experiment: anti-fungal growth inhibition, T. rubrum; assay type: cell-based; conditions: Trichophyton rubrum, 168 h, T. rubrum, one week, 30° C., OD 510 nm
Method: as §1

pancreatic acinar cells = assay type: cell-based; conditions: rat, 24 h
Method: Functional intact acini were dissociated from pancreatic tissue using collagenase digestion with mild shearing forces. Acini were cultured in Dulbecco's modification of Eagle's medium (GIBCO) supplemented with 5% fetal bovine serum (GIBCO), 1% penicillin-streptomycin (GIBCO) in a 5% CO2, 95% air humidified atmosphere at 37° C. […] MTT reagent was added to the cells at the end of the 24-hour treatment period. After a 3-hour reaction time, MTT products were dissolved in DMSO and absorbance at 570 nm was taken.

Streptococcus sobrinus = experiment: anti-bacterial growth inhibition, S. sobrinus; assay type: cell-based; conditions: Streptococcus sobrinus, S. sobrinus, 10 hours, 30° C., OD 600 nm
Method: (§2) Evaluation of anti-bacterial activity. In a single well of the 96-well microplate, 10 μL of the testing compound is added into 190 μL of growth medium growth medium (BBL™ Brain Heart Infusion) containing an overnight culture of Streptococcus mutans or Streptococcus sobrinus at a density of approximately 5×10^5 CFU. The testing compounds include dihydro-resveratrol and DR1 to DR11. Wells incubated with 10 μL 0.5% DMSO only (i.e. no testing compound) are served as the experimental control of bacterial growth whilst those incubated with growth medium only (i.e. no bacteria) are served as the negative control. […] The percentage of growth inhibition of S. mutans by the different concentrations of testing compounds is shown in Table 12 whereas the percentage of growth inhibition of S. sobrinus is shown in Table 13. The images of S. mutans culture are captured post treatment of dihydro-resveratrol (100 μM) and DR8 (100 μM) when compared to the growth of experimental control and negative control (FIG. 31).

[2] = test system: skin color at the arms of individual human subjects; experiment: skin colorimeter ITA° measurement after topical stilbenoid solution; assay type: in vivo
Method: To determine the skin color of the individual human subjects, the initial skin conditions at the arms of the individuals are tested by the skin colorimeter MPA 5 on day 0. The individual typology angle (ITA°) is calculated by the colorimeter based on the luminance (L*) and yellow-blue component (b*) values. The greater the ITA° value, the greater the skin whiteness [S. Del Bino and F. Bernerd. Variations in skin colour and the biological consequences of ultraviolet radiation exposure. British Journal of Dermatology 2013; 169 (Suppl. 3), 33-40]. In fact, skin colors are classified into 6 major divisions: very light, light, intermediate, tan, brown and dark as listed in Table 4. Two areas (2 cm×2 cm each) are selected as treated areas whereas regions surrounding the treated areas on the arms are regarded as control areas. A volume of 200 μL of the testing stilbenoids (2% by weight dissolved in ethanol) is applied to the designated area twice a day, day and night. At the end of the first week (day 7), individuals are tested with the skin colorimeter for recording the data about using the stilbenoids for 7 days. Again, at the end of the second week (day 14), individuals are tested with the skin colorimeter for recording the data about using the stilbenoids for 14 days.

Streptococcus mutans = experiment: anti-bacterial growth inhibition, S. mutans; assay type: cell-based; conditions: Streptococcus mutans, S. mutans, 10 hours, 30° C., OD 600 nm
Method: as §2

[3] = 25 μM, read-out: Inhibition rate (25 μM)
[4] = 50 μM, read-out: Inhibition rate (50 μM)
[5] = 100 μM, read-out: Inhibition rate (100 μM)

Oc1ccc(/C=C/c2cc(O)cc(O)c2)cc1 [Trans-resveratrol, trans-resveratrol, reference compound]
inhibition at 25 µM [1, 3]: 5.35% | inhibition at 50 µM [1, 4]: 13.9% | inhibition at 100 µM [1, 5]: 32.4% | inhibition at 25 µM (Trichophyton rubrum; [3]): 6.56% | inhibition at 50 µM (Trichophyton rubrum; [4]): 11.6% | inhibition at 100 µM (Trichophyton rubrum; [5]): 21.6% | cytotoxicity (MTT, mitochondrial metabolic rates) (pancreatic acinar cells): roughly 250 μM | inhibition at 25 µM (Streptococcus sobrinus; [3]): 6.71% | inhibition at 50 µM (Streptococcus sobrinus; [4]): 1.17% | inhibition at 100 µM (Streptococcus sobrinus; [5]): 2.46% | whitening effect on skin ([2]; 2% by weight in ethanol, topical twice a day, most individuals): Overt whitening effect | ITA° measurement ([2]; Individual No. 1, day 7, 2% solution topical): 47.7 ± 1.155 ° | ITA° measurement ([2]; Individual No. 1, day 14, 2% solution topical): 46.4 ± 0.548 ° | ITA° measurement ([2]; Individual No. 2, day 7, 2% solution topical): 39.2 ± 2.564 ° | ITA° measurement ([2]; Individual No. 2, day 14, 2% solution topical): 44.8 ± 2.871 ° | ITA° measurement ([2]; Individual No. 3, day 7, 2% solution topical): 38.0 ± 1.732 ° | ITA° measurement ([2]; Individual No. 3, day 14, 2% solution topical): 36.2 ± 1.789 ° | ITA° measurement ([2]; Individual No. 4, day 7, 2% solution topical): 22.4 ± 1.715 ° | ITA° measurement ([2]; Individual No. 4, day 14, 2% solution topical): 29.4 ± 1.342 ° | ITA° measurement ([2]; Individual No. 5, day 7, 2% solution topical): 26.6 ± 1.159 ° | ITA° measurement ([2]; Individual No. 5, day 14, 2% solution topical): 34.0 ± 2.168 ° | ITA° measurement ([2]; Individual No. 6, day 7, 2% solution topical): 28.2 ± 2.718 ° | ITA° measurement ([2]; Individual No. 6, day 14, 2% solution topical): 41.8 ± 3.372 ° | ITA° measurement ([2]; Individual No. 7, day 7, 2% solution topical): 20.6 ± 1.140 ° | ITA° measurement ([2]; Individual No. 7, day 14, 2% solution topical): 20.4 ± 0.578 ° | ITA° measurement ([2]; Individual No. 8, day 7, 2% solution topical): 14.0 ± 1.232 ° | ITA° measurement ([2]; Individual No. 8, day 14, 2% solution topical): 9.6 ± 1.342 ° | ITA° measurement ([2]; Individual No. 9, day 7, 2% solution topical): −7.2 ± 1.789 ° | ITA° measurement ([2]; Individual No. 9, day 14, 2% solution topical): −7.4 ± 1.140 ° | inhibition at 25 µM (Streptococcus mutans; [3]): 8.91% | inhibition at 50 µM (Streptococcus mutans; [4]): 5.77% | inhibition at 100 µM (Streptococcus mutans; [5]): 3.83%
